Earlier results, collected in PMC5629142 (Drugs in R&D, 2017).

Conditions: TBZ co-administered with CYP2D6 inhibitors

increase in overall exposure: 3 fold
SMILES: COc1cc2c(cc1OC)[C@@H]1C[C@H](O)[C@@H](CC(C)C)CN1CC2 [α-HTBZ]
